For 4 compounds, inhibition in vivo and responders results are on record in patent publication US10800758B2, “Pyrimidine compound” (OTSUKA PHARMACEUTICAL CO., LTD., priority 2017, dated 2020).

What all share (assay type): in vivo
One assay deals with DBA/2 mice. Kind of assay: Audiogenic seizure model. The note with it: Mus musculus; male and female DBA/2 mice, 30 mg/kg oral, auditory stimulation 1 hour after administration; read-out: Seizure suppression rate (%). On the procedure: The animal model used in this test is a phenotype model for partial seizure (including secondary generalized seizure) and generalized tonic-clonic seizure, and has high clinical predictability. This test was performed in accordance with the report of De Sarro et al (Br J Pharmacol. 1988 February; 93(2): 247-56. Anticonvulsant effects of some calcium entry blockers in DBA/2 mice. De Sarro G B, Meldrum B S, Nistico G.).
In this test example, the example compounds shown in Table 3 below were used as test compounds. The following compound (compound of Example 5 of WO 2004/009559), which is the most similar compound when the substituent position is taken into consideration, was used as a comparative example compound.
The test compounds were suspended in 5% gum arabic/distilled water (w/v), and administered by forced oral administration to male and female DBA/2 mice (Japan SLC, Inc., 3 weeks old, 8 per group) at a dose of 30 mg/kg. After one hour of the oral administration of the test compound, each mouse was placed in a transparent acrylic cylinder 30 cm high and 23 cm in diameter, and 30 seconds were allowed for habituation. Then, they were exposed to auditory stimulation (12.6 kHz, 100-110 dB) for 1 minute or until a tonic seizure occurred.
The seizure response was assessed using the following scale, 0: no seizure, 1: wild running, 2: clonic seizure, 3: tonic seizure and 4: respiratory arrest. The maximum response was recorded as the seizure severity score.
The seizure suppression rate for each compound administration group was calculated according to the following formula.

Assay [1] deals with ICR mice. Kind of assay: Maximal electroshock seizure (MES) model. The note with it: Mus musculus; male ICR mice, 30 mg/kg oral, electrical stimulation (30 mA, 100 Hz, 0.2 second) 1 hour after administration; read-out: rate of seizure suppression (tonic hindlimb extension seizure). On the procedure: This test is performed to evaluate the anticonvulsant activity of the compound. The mouse model used in this test is a phenotype model of generalized tonic-clonic seizure and secondary generalized partial seizure. This test was performed in accordance with the report of AJ Hill et al (Br J Pharmacol. 2012 December; 167(8): 1629-42. Cannabidivarin is anticonvulsant in mouse and rat, Hill A J, et al.).
The test compound was suspended in 5% gum arabic/distilled water (w/v), and administered by forced oral administration to male ICR mice (Japan SLC, Inc., 5 to 6 weeks old, 8 per group) at a dose of 30 mg/kg. After one hour of the oral administration of the test compound, the mice were stimulated by an application of electrical current (30 mA, 100 Hz, 0.2 second) through auricular electrodes using an electroconvulsive device (UGO BASILE SRL). Then, the incidence of tonic hindlimb extension seizure was recorded. In this test, tonic hindlimb extension seizures were induced in all mice of the solvent administration group, but the rate of seizure suppression was 75% or more with the example compounds 1, 2, 3, 5, 8, 10, 12, 13, 14, 16, 18, 22, 26, 28, 30, 31, 38, 42, 47, 48 and 54, and the suppression rate was 50% or more with the example compounds 4, 6, 9, 11, 23, 41 and 45.

Assay [2] relates to ICR mice. Nature of the assay: Subcutaneous pentylenetetrazole (scPTZ) model. The note with it: Mus musculus; male ICR mice, 30 mg/kg oral, 85 mg/kg pentylenetetrazole s.c. after 1 hour, evaluated for 30 minutes; read-out: rate of suppression against clonic convulsions. On the procedure:
This test is performed to evaluate the anticonvulsant activity of the compound as in Test Example 2. Unlike the phenotype of Test Example 2, the animal model used in this test is a phenotype model of generalized absence seizure and myoclonic seizure.
The test compound was suspended in 5% gum arabic/distilled water (w/v), and administered by forced oral administration to male ICR mice (Japan SLC, Inc., 5 to 6 weeks old, 10 per group) at a dose of 30 mg/kg. After 1 hour, 85 mg/kg of pentylenetetrazole dissolved in saline was administered subcutaneously, and the occurrence of clonic convulsions was evaluated for 30 minutes.

SMILES strings stand for the structures.

For `O=C1CCN(c2cnc(Oc3ccccc3)nc2)C(=O)N1` [Example 1, 1-(2-Phenoxypyrimidin-5-yl)-5,6-dihydropyrimidine-2,4(1H,3H)-dione], the inhibition in vivo at 30 mg/kg in the assay with DBA/2 mice worked out at 100%. Further, the responders at 30 mg/kg in the assay on ICR mice [1] and in the assay with ICR mice [2] was at least 75% in each case.
Turning to `O=C1CCN(c2cnc(Oc3ccc(F)cc3F)nc2)C(=O)N1` [Example 12], the inhibition in vivo at 30 mg/kg in the assay on DBA/2 mice turned out to be 96%. Besides, the responders at 30 mg/kg with ICR mice [1] was at least 75%; in the assay on ICR mice [2] it was at least 50%.
Turning to `O=c1ccn(-c2cnc(Oc3cccc(F)c3)nc2)c(=O)[nH]1` [Example 41], in the assay with DBA/2 mice, the inhibition in vivo at 30 mg/kg was found to be 96%. The responders at 30 mg/kg with ICR mice [1] and in the assay with ICR mice [2] was at least 50% throughout.
With `C#Cc1cccc(Oc2ncc(N3CCC(=O)NC3=O)cn2)c1` [Example 28], the inhibition in vivo at 30 mg/kg in the assay with DBA/2 mice worked out at 100%. Also, the responders at 30 mg/kg with ICR mice [1] and in the assay on ICR mice [2] was at least 75% in each case.
